Patent publication US4166125A, “2-Oxo-phenylbutanoic acid derivatives” (Grelan Pharmaceutical Co., Ltd., priority 1977, dated 1979)

How the values were obtained:
[1] = Stability on storage at 50° C. and humidity of 70% for 1 month; format: physicochemical; conditions: among the compounds (I)
Protocol: For example, when the compounds (I) are kept at temperature of 50° C., and humidity of 70% for 1 month, no substantial change with respect to their appearances and values of quantitative analysis was observed, and no decomposition product was detected by thin-layer chromatography. Thus compounds (I) are prepared for administration in the form of pharmaceutical compositions according to conventional methods in the field of the art, and it is possible to prepare a pharmaceutical composition which comprises a therapeutically effective amount of at least one compound of the general formula (I) as an active ingredient, i.e. anti-inflammatory composition, in solid administration form (e.g. tablets, granules, powders, capsules, suppository), and liquid administration form (e.g. suspension, emulsion). In that case, as carrier, vehicle, solvent or dispersant, there may be used any of those which are known in the field of art. There may be exemplified water, starch, lactose, crystalline cellulose, magnesium stearate, hydroxypropyl cellulose, mannitol, carboxymethyl cellulose, glycol, ethanol, corn oil, peanut oil, castor oil, cacao butter, isocacao, polyoxyethylene stearate. […]

[2] = tested on: febrile body temperature (Brewer's yeast); assay: Antipyretic activity (oral administration); format: in vivo, rat (Sprague-Dawley strain); conditions: 250 mg/Kg oral
Protocol: Antipyretic activity (oral administration)
According to a method conforming to Winter, C. A. et al [The Journal of Pharmacology and Experimental Therapeutics 133, 117, (1961)], 20% Brewer's yeast suspension in physiological saline was injected subcutaneously to 5 male rats in each group (Sprague-Dawley strain) weighing 200 to 250 g in an amount of 1.0 ml per 100 g of body weight of the rat. After fasting for 18 hours, each test compound suspended in 1% gum arabic solution was administered orally to the rats in an amount of 1.0 ml per 100 g of body weight. Then, the rectal temperature of the rats was taken.

[3] = tested on: gross behaviour of the mice; assay: Gross behaviour (1) (oral administration), Irwin's multi-dimensional observation; conditions: oral, 500, 1000, 2000 and 4000 mg/Kg, 4 hours
Protocol: In 1% gum arabic solution was suspended 2-oxo-3-[4-(1-oxo-2-isoindolinyl)phenyl]butanamide at a concentration of 20%. […] The dosages of the compound were 500, 1000, 2000 and 4000 mg/Kg.
To mice of a control group was administered orally only 1% gum arabic solution.

[4] = tested on: gastric mucosa; assay: Effect on gastric mucosa (1) (oral administration); format: in vivo, mouse (ddY-strain); design: unit not given here; conditions: mice, 4 hours
Protocol: 4 Hours after the administration, the mouse was sacrificed with ether, and its stomach was removed. The stomach was treated with 5% formalin for 3 minutes, and gastric mucosa was observed under a stereoscopic microscope. When gastric lesion in the mucosa was found, the length of each lesion was measured. Degree of gastric damage (i.e. GD50)* was calculated on the basis of the length of the lesion of each mouse.
Remark *: GD50 : The value corresponding to the relative frequency of 50% on the normal probability paper plotted the length of gastric lesions of each mouse.

[5] = tested on: mice; assay: Acute toxicity (1) (oral administration); format: in vivo; conditions: mice
Protocol: (§1) After administration of the compound, the number of mice that died during 7 days was observed, and LD50 value was calculated on the basis of the mortality.

[6] = Acute toxicity (1) (oral administration); format: in vivo; conditions: in vivo; mouse, oral, 7 days
Protocol: as §1

[7] = tested on: pain threshold of hind paws (Brewer's yeast); assay: Analgesic activity, Randall and Selitto method (oral administration); format: in vivo, rat (Sprague-Dawley strain)
Protocol: Randall and Selitto method
According to a method conforming to Randall, L. O. and Selitto, J. J. [Archives Internationales de Pharmacodynamie et de Therapie, 111, 409, (1957)], 0.1 ml of 10% Brewer's yeast suspension in physiological saline was injected subcutaneously into the plantar surface of the right hind paws of 5 male rats in each group (Sprague-Dawley strain) weighing 90 to 110 g. 2 Hours after administration of the yeast suspension, each test compound suspended in 0.3% CMC-Na solution was orally administered to the rats in an amount of 1.0 ml per 100 g of body weight of the rat. 30 Minutes, 60 minutes and 120 minutes after administration of the test compounds, threshold values of left and right hind paws of the rats were measured by an electric pressure device made by Daiwa Kinzoku Co., Ltd. (Japan). The change of threshold was obtained by comparing the pain threshold obtained in a group after the yeast injection with that obtained before the yeast injection, in the same group as above. Increasing percent of pain threshold of the test compound was calculated on the basis of the mean changes of threshold of the test group and of that of the control group. Rats of the control group were administered orally only 0.3% CMC-Na solution.
According to the Litchfield-Wilcoxon method [The Journal of Pharmacology and Experimental Therapeutics, 96, 96, (1949)], ED50 value was calculated as follows on the basis of the increasing percent of pain threshold;

[8] = tested on: carrageenin edema; assay: Inhibitory effect on carrageenin edema (oral administration); format: in vivo, rat (Sprague-Dawley strain)
Protocol: Inhibitory effect on carrageenin edema.
The experiment was carried out according to a method conforming to Van Arman, C. […] One hour after the administration of the test compound, 0.1 ml of 1% carrageenin solution in physiological saline was injected subcutaneously into the plantar sarface of the right hind paws of the rats. One hour after injection of carrageenin, the volume of the injected paws was measured hourly for 4 hours. Inhibition percent to carrageenin edema (%)* was calculated in comparison with the volume of paws of rats of a control group, to which only 0.3% CMC-Na solution was orally administered. [formula]

[9] = oral, 500, 1000, 2000 and 4000 mg/Kg, 7 days

## CC(C(=O)C(N)=O)c1ccc(N2Cc3ccccc3C2=O)cc1 (stereo not drawn) [2-oxo-3-[4-(1-oxo-2-isoindolinyl)phenyl]butanamide]
[1]
  Stability (in words): more stable
[2]
  Drop of febrile body temperature: 1 °C
[3]
  Abnormal behaviour (depression to spontaneous activity, loss of righting reflex, tremor, convulsion, abnormal gait, loss of pinna reflex, loss of corneal reflex, abnormality of respiration): not observed
[4]; 100 mg/Kg oral
  Degree of gastric damage (GD50): 1.0
[4]; 200 mg/Kg oral
  Degree of gastric damage (GD50): 7.0
[4]; 400 mg/Kg oral
  Degree of gastric damage (GD50): 2.5
[5]; after 7 days
  Macroscopic observation of organs in head, thorax and abdominal cavity: No abnormality was observed
[5]; [9]
  Abnormal behaviour: not observed
  Death: not observed
  Inhibition to increase of body weight: not observed
[6]
  LD50 at 168 h: > 4000 mg/kg
[7]; 25 mg/Kg oral, 30 minutes after administration
  Increasing percent of pain threshold: 15.6 ± 10.3%
[7]; 25 mg/Kg oral, 60 minutes after administration
  Increasing percent of pain threshold: 14.1 ± 13.7%
[7]; 25 mg/Kg oral, 120 minutes after administration
  Increasing percent of pain threshold: 22.1 ± 18.5%
[7]; 50 mg/Kg oral, 30 minutes after administration
  Increasing percent of pain threshold: 46.9 ± 4.6%
[7]; 50 mg/Kg oral, 60 minutes after administration
  Increasing percent of pain threshold: 32.7 ± 5.9%
[7]; 50 mg/Kg oral, 120 minutes after administration
  Increasing percent of pain threshold: 48.6 ± 9.0%
[7]; 100 mg/Kg oral, 30 minutes after administration
  Increasing percent of pain threshold: 46.1 ± 6.6%
[7]; 100 mg/Kg oral, 60 minutes after administration
  Increasing percent of pain threshold: 32.4 ± 7.0%
[7]; 100 mg/Kg oral, 120 minutes after administration
  Increasing percent of pain threshold: 39.0 ± 7.3%
[7]; 200 mg/Kg oral, 30 minutes after administration
  Increasing percent of pain threshold: 57.3 ± 14.8%
[7]; 200 mg/Kg oral, 60 minutes after administration
  Increasing percent of pain threshold: 39.7 ± 8.9%
[7]; 200 mg/Kg oral, 120 minutes after administration
  Increasing percent of pain threshold: 39.6 ± 6.5%
[7]; Rattus norvegicus, oral, Litchfield-Wilcoxon method, from increasing percent of pain threshold
  ED50: 100 mg/kg
[8]; 12.5 mg/Kg oral, 3 hour after administration
  Inhibition to carrageenin edema: 29.2 ± 6.4%
[8]; 12.5 mg/Kg oral, 4 hour after administration
  Inhibition to carrageenin edema: 29.3 ± 4.4%
[8]; 25 mg/Kg oral, 3 hour after administration
  Inhibition to carrageenin edema: 29.2 ± 9.0%
[8]; 25 mg/Kg oral, 4 hour after administration
  Inhibition to carrageenin edema: 26.6 ± 8.2%
[8]; 50 mg/Kg oral, 3 hour after administration
  Inhibition to carrageenin edema: 35.6 ± 3.9%
[8]; 50 mg/Kg oral, 4 hour after administration
  Inhibition to carrageenin edema: 34.1 ± 1.2%
[8]; 100 mg/Kg oral, 3 hour after administration
  Inhibition to carrageenin edema: 51.0 ± 8.6%
[8]; 100 mg/Kg oral, 4 hour after administration
  Inhibition to carrageenin edema: 42.8 ± 6.9%
[8]; Rattus norvegicus, oral, from inhibition percent to edema at 3 hours after administration, read-out: ED40
  ED40: 48 mg/kg
